What was measured:
AMPK [1] = assay: AMPK activation assay (western blot phospho-AMPK Thr172) in 3T3-L1; type: cell-based, mouse; settings: 3T3-L1 cells, 30 min treatment
Protocol: (§1) Effects of compounds on AMPK activation were analyzed in mouse muscle cell C2C12, mouse fibroblast 3T3-L1 and human hepatocyte Hep G2. Those cell lines were cultured in high-glucose Dulbecco's modified Eagle's medium (DMEM) containing 10% fetal bovine serum (FBS), 4 mM L-glutamine, 2 mM sodium pyruvate and 1% penicillin/streptomycin (Invitrogen GibcoBRL, Carlsbad, Calif., USA) at 37° C. under 5% CO2. Cells were plated at 3×10^5 per well (6-well plate). 24 h after plating, cells were treated with indicated compounds for 30 min followed by cell lysis and western blot analysis. Equal amount of protein were separated by SDS-PAGE and then electroblotted on to PVDF membranes. Membranes were blocked with 3% BSA in PBS for 60 min and incubated with anti-phospho-AMPK (Thr172) antibody (1:2,000, Cell signaling), anti-AMPK antibody (1:2,000, Cell signaling), anti-Glut4 antibody (1:1,000, Millipore) or anti-actin antibody (1:5,000; Chemicon International) at 4° C. overnight followed by the corresponding secondary antibody for 1 h at room temperature (RT). Immunoreactive bands were detected by enhanced chemiluminescence (ECL; Pierce, Rockford, Ill., USA) and recorded using Kodakfilm (Rochester, N.Y., USA). The detected signals were scanned and then quantified by using TotalLab Quant software (TotalLab).

AMPK [2] = assay: AMPK activation assay (western blot phospho-AMPK Thr172) in C2C12; type: cell-based, mouse; settings: C2C12 cells, 30 min treatment
Protocol: as §1

AMPK [3] = assay: AMPK activation assay (western blot phospho-AMPK Thr172) in Hep G2; type: cell-based, human; settings: Hep G2 cells, 30 min treatment
Protocol: as §1

| SMILES | AMPK activation (% to control) 3T3-L1 (AMPK [1]; 1 microM) | AMPK activation (% to control) 3T3-L1 (AMPK [1]; 10 microM) | AMPK activation (% to control) 3T3-L1 (AMPK [1]; 100 microM) | AMPK activation (% to control) 3T3-L1 (AMPK [1]; 200 microM) | AMPK activation (% to control) C2C12 (AMPK [2]; 1 microM) | AMPK activation (% to control) C2C12 (AMPK [2]; 10 microM) | AMPK activation (% to control) C2C12 (AMPK [2]; 100 microM) | AMPK activation (% to control) C2C12 (AMPK [2]; 200 microM) | AMPK activation (% to control) Hep G2 (AMPK [3]; 1 microM) | AMPK activation (% to control) Hep G2 (AMPK [3]; 10 microM) | AMPK activation (% to control) Hep G2 (AMPK [3]; 100 microM) | AMPK activation (% to control) Hep G2 (AMPK [3]; 200 microM) |
| --- | --- | --- | --- | --- | --- | --- | --- | --- | --- | --- | --- | --- |
| Nc1nc(O)nc2nc[nH]c12 [Example 2-hydroxyadenine, 2-hydroxyadenine] | 117 % to control | 171 % to control | 264 % to control | 351 % to control | 111 % to control | 166 % to control | 275 % to control | 315 % to control | 118 % to control | 143 % to control | 220 % to control | 338 % to control |
| Nc1nc(I)nc2nc[nH]c12 [Example 2-iodoadenine, 2-iodoadenine] | 116 % to control | 179 % to control | 237 % to control | 358 % to control | 114 % to control | 143 % to control | 214 % to control | 311 % to control | 115 % to control | 151 % to control | 227 % to control | 341 % to control |
| Oc1nc(S)nc2nc[nH]c12 [Example 2-mercapto-6-hydroxypurine, 2-mercapto-6-hydroxypurine] | 115 % to control | 147 % to control | 220 % to control | 308 % to control | 109 % to control | 148 % to control | 251 % to control | 333 % to control | 113 % to control | 132 % to control | 209 % to control | 315 % to control |
| Nc1nc(S)nc2nc[nH]c12 [Example 2-mercaptoadenine, 2-mercaptoadenine] | 112 % to control | 128 % to control | 204 % to control | 297 % to control | 105 % to control | 115 % to control | 221 % to control | 289 % to control | 118 % to control | 119 % to control | 195 % to control | 308 % to control |
| Cc1nc(O)c2[nH]cnc2n1 [Example 2-methyl-6-hydroxypurine, 2-methyl-6-hydroxypurine] | 112 % to control | 144 % to control | 228 % to control | 338 % to control | 109 % to control | 139 % to control | 241 % to control | 305 % to control | 116 % to control | 162 % to control | 219 % to control | 347 % to control |
| O=c1[nH]cc(F)c(=O)[nH]1 [Example 5-fluorouracil, 5-fluorouracil] | 108 % to control | 113 % to control | 248 % to control | 322 % to control | 105 % to control | 105 % to control | 224 % to control | 318 % to control | 110 % to control | 134 % to control | 237 % to control | 319 % to control |
| Cc1c[nH]c(=O)nc1N [Example 5-methylcytosine, 5-methylcytosine] | 115 % to control | 161 % to control | 253 % to control | 356 % to control | 116 % to control | 157 % to control | 241 % to control | 338 % to control | 107 % to control | 114 % to control | 218 % to control | 317 % to control |
| O=c1cn[nH]c(=O)[nH]1 [Example 6-azauracil, 6-azauracil] | 109 % to control | 115 % to control | 185 % to control | 288 % to control | 109 % to control | 109 % to control | 197 % to control | 284 % to control | 108 % to control | 124 % to control | 199 % to control | 273 % to control |
| c1nc(NC2CCCCC2)c2[nH]cnc2n1 [Example 6-cyclohexylaminopurine, 6-cyclohexylaminopurine] | 107 % to control | 152 % to control | 269 % to control | 333 % to control | 107 % to control | 110 % to control | 248 % to control | 322 % to control | 111 % to control | 132 % to control | 261 % to control | 354 % to control |
| CCCCCCNc1ncnc2nc[nH]c12 [Example 6-hexylaminopurine, 6-hexylaminopurine] | 108 % to control | 111 % to control | 170 % to control | 265 % to control | 109 % to control | 123 % to control | 248 % to control | 359 % to control | 112 % to control | 148 % to control | 280 % to control | 317 % to control |
| Sc1ncnc2nc[nH]c12 [Example 6-mercaptopurine, 6-mercaptopurine] | 114 % to control | 128 % to control | 176 % to control | 218 % to control | 105 % to control | 119 % to control | 198 % to control | 289 % to control | 114 % to control | 122 % to control | 204 % to control | 279 % to control |
| CNc1ncnc2nc[nH]c12 [Example 6-methylaminopurine, 6-methylaminopurine] | 107 % to control | 129 % to control | 241 % to control | 347 % to control | 103 % to control | 108 % to control | 213 % to control | 328 % to control | 116 % to control | 141 % to control | 259 % to control | 363 % to control |

Reference: patent US9938279B2, “Method for treating disease or condition susceptible to amelioration by AMPK activators and compounds of formula which are useful to activate AMP-activated protein kinase (AMPK)” (ENERGENESIS BIOMEDICAL CO., LTD, priority 2013, dated 2018)
